Source: EPA's ToxRefDB 2

Key:
rat [1] = conditions: Prenatal developmental toxicity study, sprague dawley, Oral, Gavage/Intubation, dose end: 15 GD
dog [2] = conditions: Chronic toxicity; beagle; Oral; Feed; dose end: 104 week; group: cholinesterase; cholinesterase / cholinesterase / cholinesterase / erythrocyte cholinesterase (che) + cholinesterase / cholinesterase / cholinesterase / …
dog [3] = conditions: Chronic toxicity; beagle; Oral; Feed; dose end: 12 month; group: cholinesterase; cholinesterase / cholinesterase / cholinesterase / brain cholinesterase (che) + cholinesterase / cholinesterase / cholinesterase / …
dog [4] = conditions: Chronic toxicity; beagle; Oral; Feed; dose end: 107 week; group: systemic; systemic / pathology gross / eye / [other] + systemic / pathology gross / eye / discolored + systemic / pathology microscopic / eye / [other…
rat [5] = conditions: Combined chronic toxicity/carcinogenicity, fischer, Oral, Feed, dose end: 105 week
mouse = conditions: Carcinogenicity, cd1, Oral, Feed, dose end: 108 week
[6] = group: cholinesterase, cholinesterase / cholinesterase / cholinesterase / erythrocyte cholinesterase (che) + cholinesterase / cholinesterase / cholinesterase / …
[7] = group: developmental, developmental / developmental malformation / bone / incomplete ossification
[8] = group: cholinesterase, cholinesterase / cholinesterase / cholinesterase / brain cholinesterase (che) + cholinesterase / cholinesterase / cholinesterase / …
[9] = group: systemic, systemic / pathology gross / harderian gland / degeneration + systemic / in life observation / body weight / body weight + systemic / in …
[10] = group: systemic, systemic / organ weight / kidney / relative to body weight + systemic / pathology microscopic / heart / lymphoma malignant
[11] = group: systemic, systemic / organ weight / kidney / relative to body weight + systemic / pathology microscopic / heart / lymphoma malignant + systemic / …

For `CCOP(=S)(OCC)SCCSCC` [Disulfoton], the LEL (rat [1]; [6]) was 0.3 mg/kg/day, the LOAEL (rat [1]; [6]) was 0.3 mg/kg/day and the NEL (rat [1]; [6]) was 0.1 mg/kg/day. It also gave an NOAEL (rat [1]; [6]) of 0.1 mg/kg/day, an LEL (rat [1]; [7]) of 1 mg/kg/day and an LOAEL (rat [1]; [7]) of 1 mg/kg/day. For the same molecule, the NEL (rat [1]; [7]) was 0.3 mg/kg/day, the NOAEL (rat [1]; [7]) was 0.3 mg/kg/day and the LEL (dog [2]) was 0.05 mg/kg/day. For the same molecule, the LOAEL (dog [2]) was 0.05 mg/kg/day, the NEL (dog [2]) was 0.025 mg/kg/day and the NOAEL (dog [2]) was 0.025 mg/kg/day. For the same molecule, the LEL (dog [3]) was 0.094 mg/kg/day, the LOAEL (dog [3]) was 0.094 mg/kg/day and the NEL (dog [3]) was 0.013 mg/kg/day. It also gave an NOAEL (dog [3]) of 0.013 mg/kg/day, an LEL (dog [4]) of 1.5 mg/kg/day and an LOAEL (dog [4]) of 1.5 mg/kg/day. The NEL (dog [4]) was 0.0375 mg/kg/day, the NOAEL (dog [4]) was 0.0375 mg/kg/day and the LEL (rat [5]; [8]) was 0.04 mg/kg/day. For the same molecule, the LOAEL (rat [5]; [8]) was 0.04 mg/kg/day, the NEL (rat [5]; [8]) was < 0.04 mg/kg/day and the NOAEL (rat [5]; [8]) was < 0.04 mg/kg/day. The LOAEL (rat [5]; group: systemic, systemic / pathology gross / harderian gland / degeneration) was 0.65 mg/kg/day, the LEL (rat [5]; [9]) was 0.65 mg/kg/day and the NEL (rat [5]; [9]) was 0.165 mg/kg/day. The NOAEL (rat [5]; [9]) was 0.165 mg/kg/day, the LEL (mouse; [8]) was 2.4 mg/kg/day and the LOAEL (mouse; [8]) was 2.4 mg/kg/day. The NEL (mouse; [8]) was 0.6 mg/kg/day, the NOAEL (mouse; [8]) was 0.6 mg/kg/day and the LEL (mouse; [10]) was 0.15 mg/kg/day. The NEL (mouse; [10]) was < 0.15 mg/kg/day, the LOAEL (mouse; [11]) was > 2.4 mg/kg/day and the NOAEL (mouse; [11]) was ≥ 2.4 mg/kg/day.
